PubChem BioAssay (NCI)
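Method: 48-hour compound exposure of cells in 96-well plates, five concentrations, linear interpolation of endpoints. The concentration for full growth arrest is given as TGI.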

Tests used:
Experiment in all cases: DTP human tumour cell line panel, 48 h
[1] = test system: A549 NSCLC
[2] = test system: NCI-H460 lung
[3] = test system: IGROV1 ovarian
[4] = test system: HOP-62 NSCLC
[5] = test system: A498 renal
[6] = test system: K-562 leukemia
[7] = test system: HCT-116 colon
[8] = test system: SF-268 CNS
[9] = test system: HCC-2998 colon
[10] = test system: MDA-N
[11] = test system: SK-MEL-5 melanoma
[12] = test system: U251 CNS
[13] = test system: SR leukemia
[14] = test system: OVCAR-4 ovarian
[15] = test system: BT-549 breast
[16] = test system: SK-MEL-28 melanoma
[17] = test system: OVCAR-3 ovarian
[18] = test system: MDA-MB-435
[19] = test system: NCI-H226 lung
[20] = test system: T-47D breast
[21] = test system: MCF7 breast
[22] = test system: RPMI-8226 leukemia
[23] = test system: MDA-MB-231 breast
[24] = test system: ACHN renal
[25] = test system: KM12 colon
[26] = test system: HL-60(TB) leukemia
[27] = test system: HS 578T breast
[28] = test system: M14 melanoma
[29] = test system: COLO 205 colon
[30] = test system: SW-620 colon
[31] = test system: MOLT-4 leukemia
[32] = test system: NCI-H23 lung
[33] = test system: LOX IMVI melanoma
[34] = test system: SN12C renal
[35] = test system: DU-145 prostate
[36] = test system: SNB-19 CNS
[37] = test system: CAKI-1 renal
[38] = test system: TK-10 renal
[39] = test system: PC-3 prostate
[40] = test system: UACC-62 melanoma
[41] = test system: UO-31 renal
[42] = test system: 786-0 renal
[43] = test system: SK-OV-3 ovarian
[44] = test system: HCT-15 colon
[45] = test system: SK-MEL-2 melanoma
[46] = test system: SF-539 CNS
[47] = test system: SF-295 CNS
[48] = test system: RXF 393 renal
[49] = test system: CCRF-CEM leukemia
[50] = test system: HOP-92 NSCLC
[51] = test system: UACC-257 melanoma
[52] = test system: OVCAR-8 ovarian
[53] = test system: OVCAR-5 ovarian
[54] = test system: SNB-75 CNS
[55] = test system: EKVX NSCLC

Measured: TGI

O=C1c2ccccc2C2(c3ccc(Cl)cc3)N[C@@H]3CCCC[C@@H]3N12 (stereo not given in full)
> 100 µM: all assays above
